# US6136781A, “LH-RH receptor antagonists” (Takeda Chemical Industries, Ltd., priority 1995, dated 2000)
# Like-named read-outs stand apart in the source and are kept apart here. Square brackets hold non-standard residues; d marks the D form. Peptide text beside a SMILES is read from it. * marks the point of attachment. Naphthalene1sulfonyl = O=S(=O)(c1cccc2ccccc12)*; Gly(2-thienyl) = N[C@H](C(=O)O)c1cccs1; Hexanoyl(6-Ph) = O=C(CCCCCc1ccccc1)*; Mtr = COc1cc(C)c(S(=O)(=O)*)c(C)c1C; Butanoyl(4-Ph) = O=C(CCCc1ccccc1)*; 1Naphthoyl = O=C(c1cccc2ccccc12)*; NHPhenethyl = c1ccc(CCN*)cc1; Phg = N[C@H](C(=O)O)c1ccccc1; Tos = Cc1ccc(S(=O)(=O)*)cc1; Bz = O=C(c1ccccc1)*
# Experiments:
# Human LH-RH Receptor = biological target: T1, Human LH-RH Receptor (Homo sapiens, UniProt P30968); experiment: Inhibition of bonding of 125I-leuprorelin to human LH-RH receptor (receptor assay); type: binding; settings: human LH-RH receptor-expressing CHO cell membrane fraction, 25° C. for 60 minutes, Hill plotting
# T1 construct: expressed in transfected cells; host or cells: CHO cells (Chinese hamster ovary), membrane fraction
# T1 sequence (P30968 1-328): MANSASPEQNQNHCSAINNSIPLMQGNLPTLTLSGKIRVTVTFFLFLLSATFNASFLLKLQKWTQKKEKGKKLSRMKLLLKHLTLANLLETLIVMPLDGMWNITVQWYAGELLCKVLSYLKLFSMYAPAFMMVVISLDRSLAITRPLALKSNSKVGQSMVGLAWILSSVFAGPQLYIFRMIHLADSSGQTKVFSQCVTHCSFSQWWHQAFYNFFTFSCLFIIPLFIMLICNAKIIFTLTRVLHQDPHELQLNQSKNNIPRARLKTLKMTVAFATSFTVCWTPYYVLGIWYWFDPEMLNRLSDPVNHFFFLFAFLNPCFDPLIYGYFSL
# Description: Human LH-RH receptor-expressing CHO cells (10^9 cells) were floated in a phosphate buffer saline containing 5 mM EDTA (PBS-EDTA) and subjected to centrifugation at 100×g for 5 minutes. 10 ml of a cell homogenate buffer (10 mM NaHCO3, 5 mM EDTA, pH 7.5) was added to the resulting cell pellets, and the resulting mixture was then homogenized in a polytron homogenizer. This was thereafter centrifuged at 400×g for 15 minutes, and the resulting supernatant was collected in an ultra-centrifuger and again centrifuged at 100,000×g for 1 hour to obtain a precipitate of the cell membrane fraction. This precipitate was suspended in 2 ml of an assay buffer and centrifuged at 100,000×g for 1 hour. The cell membrane fraction thus collected as a precipitate was again suspended in 20 ml of an assay buffer, put into plural vials and stored at -80° C. These were individually thawed before use.
# Determination of Percentage of Inhibition of Bonding of ^125 I-Leuprorelin to Human LH-RH Receptor
# The human LH-RH receptor-expressing CHO cell membrane fraction as prepared in Reference Example 2 was diluted with an assay buffer to have a concentration of 200 μg/ml and put into plural tubes at 188 μl/tube. Where the human LH-RH receptor-expressing CHO cell membrane fraction was used, 2 μl of a solution of the test compound (2 mM) as dissolved in 60%-DMSO and 10 μl of ^125 I-leuprorelin (38 nM) were added to the dilution of the fraction. In order to measure the maximum amount of the ^125 I-leuprorelin as bonded to the receptor, a reaction system comprising 2 μl of 60%-DMSO and 10 μl of ^125 -leuprorelin (38 nM) was prepared. In order to measure the amount of ^125 I-leuprorelinas non-specifically bonded to the receptor, a reaction system comprising 2 μl of leuprorelin (100 μM) as dissolved in 60%-DMSO and 10 μl of ^125 I-leuprorelin (38 nM) was prepared.
# Each system of the present invention comprising the human LH-RH receptor-expressing CHO cell membrane fraction was reacted at 25° C. for 60 minutes. After the reaction, the reaction mixture was filtered under suction through a polyethyleneimine-treated Wattman glass filter (GF-F). After the filtration, the radioactivity of ^125 I-leuprorelin in the residue remained on the filter paper was measured using a g-counter.
# From the data measured, a value of [(TB-SB)/(TB-NSB)]×100 (where SB is the radioactivity of the test system to which the test compound had been added; TB is the radioactivity of the maximum bonding system; and NSB is the radioactivity of the non-specific bonding system) was calculated, which indicates the bonding-inhibition percentage (%) of the compound tested. […] The results obtained are shown in [Table 1].
# [1] = amide bond, 15-membered ring
# [2] = amide bond; 15-membered ring; PyBOP/DIEA; DMF; 25.0 °C; 2 steps
# [3] = amide bond, DMF
# [4] = DIEA/AcOH, DMF, resin, with chain assembly
Compound,IC50 (Human LH-RH Receptor),other results
"CC(C)C[C@@H]1NC(=O)[C@@H](Cc2c[nH]c3ccccc23)NC(=O)[C@H](Cc2ccc(O)cc2)NC(=O)[C@@H](CCCCNS(=O)(=O)c2cccc3ccccc23)NC(=O)[C@H](CCCNC(=N)N)NC1=O [Example 1, cyclo(-Arg-D-Lys(SO2 Nap(1))-Tyr-D-Trp-Leu-)] (cyclo(LR[dK](Naphthalene1sulfonyl)Y[dW]))",0.9 µM,–
"CC(C)C[C@@H]1NC(=O)[C@@H](Cc2c[nH]c3ccccc23)NC(=O)[C@H](Cc2ccc(O)cc2)NC(=O)[C@@H](CCCCNC(=O)CCCc2ccccc2)NC(=O)[C@H](CCCNC(=N)N)NC1=O [Example 19, cyclo(-Arg-D-Lys(COCH2 CH2 CH2 Ph)-Tyr-D-Trp-Leu-)] (cyclo(LR[dK](Butanoyl(4-Ph))Y[dW]))",1 µM,–
"CC(C)C[C@@H]1NC(=O)[C@@H](Cc2c[nH]c3ccccc23)NC(=O)[C@H](Cc2ccc(O)cc2)NC(=O)[C@@H](CCCCNC(=O)CCCCCc2ccccc2)NC(=O)[C@H](CCCNC(=N)N)NC1=O [Example 20, cyclo(-Arg-D-Lys (COCH2 CH2 CH2 CH2 CH2 Ph)-Tyr-D-Trp-Leu-)] (cyclo(LR[dK](Hexanoyl(6-Ph))Y[dW]))",0.1 µM,–
"CC(C)C[C@@H]1NC(=O)[C@@H](Cc2c[nH]c3ccccc23)NC(=O)[C@H](CCCCNC(=O)c2ccccc2)NC(=O)[C@@H](CCC(=O)NCCc2ccccc2)NC(=O)[C@H](CCCNC(=N)N)NC1=O [Example 21, cyclo(-Arg-D-Glu(NHCH2 CH2 Ph)-Lys(COPh)-D-Trp-Leu-)] (cyclo(K(Bz)[dW]LR[dE](NHPhenethyl)))",0.4 µM,–
"CC(C)C[C@@H]1NC(=O)[C@@H](Cc2c[nH]c3ccccc23)NC(=O)[C@H](CCCNC(=N)N)NC(=O)[C@@H](Cc2ccc(O)cc2)NC(=O)[C@@H](CCCCNS(=O)(=O)c2cccc3ccccc23)NC1=O [Example 23, cyclo(-D-Tyr-Arg-D-Trp-Leu-D-Lys(SO2 Nap(1))-)] (cyclo(L[dK](Naphthalene1sulfonyl)[dY]R[dW]))",0.9 µM,–
"CC(C)C[C@@H]1NC(=O)[C@@H](Cc2c[nH]c3ccccc23)NC(=O)[C@H](CCCCNC(=O)c2cccc3ccccc23)NC(=O)[C@@H](CCC(=O)NCCc2ccccc2)NC(=O)[C@H](CCCNC(=N)N)NC1=O [Example 31, cyclo(-Arg-D-Glu(NHCH2 CH2 Ph)-Lys(CONap(1))-D-Trp-Leu-)] (cyclo(K(1Naphthoyl)[dW]LR[dE](NHPhenethyl)))",0.2 µM,–
"COc1cc(C)c(S(=O)(=O)NC(=N)NCCC[C@H]2NC(=O)[C@H](Cc3ccccc3)NC(=O)[C@H](Cc3c[nH]c4ccccc34)NC(=O)[C@@H](C)NC(=O)[C@H](Cc3ccccc3)NC2=O)c(C)c1C [Example 35, cyclo(-Phe-D-Arg-(Mtr)-Phe-D-Ala-Trp-)] (cyclo(F[dA]WF[dR](Mtr)))",0.4 µM,–
"C[C@H]1NC(=O)[C@H](Cc2ccccc2)NC(=O)[C@@H](CCCNC(=N)N)NC(=O)[C@H](Cc2ccccc2)NC(=O)[C@H](Cc2c[nH]c3ccccc23)NC1=O [Example 36, cyclo(-Phe-D-Arg-Phe-D-Ala-Trp-)] (cyclo(F[dA]WF[dR]))",0.9 µM,–
"Cc1ccc(S(=O)(=O)NC(=N)NCCC[C@H]2NC(=O)[C@H](Cc3ccccc3)NC(=O)[C@H](Cc3c[nH]c4ccccc34)NC(=O)[C@@H](C)NC(=O)[C@H](Cc3ccccc3)NC2=O)cc1 [Example 37, cyclo(-Phe-D-Arg(Tos)-Phe-D-Ala-Trp-)] (cyclo(F[dA]WF[dR](Tos)))",0.3 µM,–
"C[C@H]1NC(=O)[C@H](Cc2ccccc2)NC(=O)[C@H](CCCNC(=N)N)NC(=O)[C@H](Cc2ccccc2)NC(=O)[C@H](Cc2c[nH]c3ccccc23)NC1=O [Example 43, cyclo(-Phe-Arg-Phe-D-Ala-Trp-)] (cyclo(FRF[dA]W))",1 µM,–
"Cc1ccc(S(=O)(=O)NC(=N)NCCC[C@H]2NC(=O)[C@H](c3ccccc3)NC(=O)[C@H](Cc3c[nH]c4ccccc34)NC(=O)[C@@H](C)NC(=O)[C@H](Cc3ccccc3)NC2=O)cc1 [Example 48, cyclo(-Phg-D-Arg(Tos)-Phe-D-Ala-Trp-)] (cyclo(F[dA]W[Phg][dR](Tos)))",0.07 µM,–
"Cc1ccc(S(=O)(=O)NC(=N)NCCC[C@H]2NC(=O)[C@H](C)NC(=O)[C@H](Cc3c[nH]c4ccccc34)NC(=O)[C@@H](C)NC(=O)[C@H](Cc3ccccc3)NC2=O)cc1 [Example 51, cyclo(-Ala-D-Arg(Tos)-Phe-D-Ala-Trp-)] (cyclo(A[dR](Tos)F[dA]W))",0.2 µM,–
"Cc1ccc(S(=O)(=O)NC(=N)NCCC[C@H]2NC(=O)[C@H](c3ccccc3)NC(=O)[C@H](Cc3ccccc3)NC(=O)[C@@H](C)NC(=O)[C@H](Cc3ccccc3)NC2=O)cc1 [Example 53, cyclo(-Phg-D-Arg(Tos)-Phe-D-Ala-Phe-)] (cyclo(F[Phg][dR](Tos)F[dA]))",0.1 µM,–
"Cc1ccc(S(=O)(=O)NC(=N)NCCC[C@H]2NC(=O)[C@H](c3cccs3)NC(=O)[C@H](Cc3c[nH]c4ccccc34)NC(=O)[C@@H](C)NC(=O)[C@H](Cc3ccccc3)NC2=O)cc1 [Example 54, cyclo(-Thg(2)-D-Arg(Tos)-Phe-D-Ala-Trp-)] (cyclo(F[dA]W[Gly(2-thienyl)][dR](Tos)))",0.3 µM,–
"C[C@H]1NC(=O)[C@H](Cc2ccccc2)NC(=O)[C@@H](CCCNC(=N)N)NC(=O)[C@H](c2ccccc2)NC(=O)[C@H](Cc2c[nH]c3ccccc23)NC1=O [Example 55, cyclo(-Phg-D-Arg-Phe-D-Ala-Trp-)] (cyclo(F[dA]W[Phg][dR]))",0.2 µM,–
"CC(C)C[C@@H]1NC(=O)[C@@H](Cc2c[nH]c3ccccc23)NC(=O)[C@H](Cc2ccc(O)cc2)NC(=O)[C@@H]2CCCN2C(=O)[C@H](Cc2c[nH]c3ccccc23)NC(=O)[C@H](CCCNC(=N)N)NC1=O [Reference Example 1, cyclo(-Tyr-D-Trp-Leu-Arg-Trp-Pro-), reference compound] (cyclo(LRWPY[dW]))",10 µM,–
Cyclo(-Arg(Tos)-D-Glu(NHCH2 CH2 Ph)-Lys(Cl-Z)-D-Trp-Leu-),–,"ring closure, crude yield ([1]; ONB active ester, 4 steps): 72.3%"
cyclo(-Phe-D-Arg(Tos)-Phe-D-Phe-Trp-),–,"ring closure, isolated yield [2]: 70.6%"
cyclo(-Phe-D-Arg(Tos)-Phe-D-Trp-Trp-),–,"ring closure, isolated yield [2]: 83%"
cyclo(-Thg(2)-D-Arg(Tos)-Phe-D-Ala-Trp-),–,"ring closure, yield after HPLC ([3]; 15-membered ring, PyBOP/DIEA, 25.0 °C): 13.8%"
cyclo(-Tyr-D-Trp-Leu-Arg-Trp-Pro-),–,"ring closure, yield after HPLC ([3]; 18-membered ring, DIEA, 1.0 mM, 5 steps): 15.3%"
cyclo(-pClPhe-Arg(Tos)-Nal(2)-D-Ala-Trp-),–,"ring closure, crude yield [1, 4]: 59.1%"
cyclo(-pClPhe-D-Arg(Tos)-Nal(2)-D-Ala-Trp-),–,"ring closure, crude yield [1, 4]: 92.8%"
